The source of these data is US12030893B2, “Near-infrared nerve-sparing benzo[c]phenoxazine fluorophores” (OREGON HEALTH & SCIENCE UNIVERSITY, priority 2018, dated 2024).

Series [1] has as its system murine brachial plexus and sciatic nerves. Kind of series: In vivo nerve-specificity screening via systemic administration. The arrangement: species or system mice. Particulars: 500 nmol intravenously in co-solvent formulation; sacrificed at 0.5 h, 1 h, 2 h, 4 h. On the procedure: Each compound was screened for its tissue-specificity using a previously published systemic administration strategy in murine brachial plexus and sciatic nerves.^1 Each compound from the benzo[c]phenoxazine library was formulated in the previously utilized co-solvent formulation (10% DMSO, 5% Kolliphor, 65% serum and 20% phosphate buffered saline) at 2.5 mM. 200 μL of the formulated fluorophore was administered intravenously before exposing the brachial plexus and sciatic nerves. Co-registered fluorescence and color images were collected of each nerve site using a custom built macroscopic imaging system with 710/75 nm excitation and 810 nm longpass emission filters. Custom written MatLab code was used to analyze the tissue specific fluorescence where regions of interest were selected on the nerve, muscle and adipose tissue using the white light images. These regions of interest were then analyzed on the co-registered matched fluorescence images permitting assessment of the nerve to muscle and nerve to adipose ratios in blinded manner.
In vivo nerve-specificity screening of the benzo[c]phenoxazine derivative library. Each compound was screened for its tissue-specificity using a direct administration strategy (Barth & Gibbs, Theranostics 7, 573-593 (2017)) where nerve contrast was examined in murine brachial plexus and sciatic nerves. The benzo[c]phenoxazine derivatives were solubilized for in vivo use in the previously described co-solvent formulation (Gibbs-Strauss et al., Molecular imaging 10, 91-101 (2011)). The previously optimized staining procedure was utilized (Gibbs et al., PloS one 8, e73493 (2013)), which is described briefly as follows. […] Unstained nerve sites were used for all control images to quantify autofluorescence. […] The quantified tissue fluorescence intensities following direct administration of the fluorophores were used to calculate nerve-to-muscle, nerve-to-cut muscle, and nerve-to-adipose ratios as metrics of nerve contrast. […] Uninjected animals were used for all control images to quantify autofluorescence. Similarly to quantification protocol for the direct administration, the quantified tissue fluorescence intensities following systemic administration of the fluorophores were used to calculate nerve-to-muscle and nerve-to-adipose ratios as metrics of nerve contrast. […]
Intraoperative fluorescence imaging systems. A custom-built small animal imaging system capable of real-time color and fluorescence imaging was used to acquire in vivo rodent images (Hackman et al., Molecular pharmaceutics (2015)). Briefly, the imaging system consisted of a QImaging EXi Blue monochrome camera (Surrey, British Columbia, CA) for fluorescence detection with a removable Bayer filter for collection of co-registered color and fluorescence images. […]

Series [2] has the same test system. The series can be described thus: In vivo nerve-specificity screening via direct/topical administration. The arrangement: species or system mice. The following applies: 500 μM in co-solvent formulation, 100 μL incubated 5 minutes on exposed nerve, imaged 30 minutes after staining; selected for further systemic screening. On the procedure:
Each compound was screened for its tissue-specificity using a previously published direct/topical administration strategy in murine brachial plexus and sciatic nerves.^1 Each compound from the benzo[c]phenoxazine library was formulated in the previously utilized co-solvent formulation (10% DMSO, 5% Kolliphor, 65% serum and 20% phosphate buffered saline) at 500 μM. 100 μL of the formulated Oxazine were incubated on the exposed brachial plexus or sciatic nerve for 5 minutes. The fluorophore containing solution was removed and the area was irrigated with saline 18 times to remove any unbound fluorophore. Co-registered fluorescence and color images were collected of each stained area 30 minutes after benzo[c]phenoxazine direct/topical administration using a custom built macroscopic imaging system with 710/75 nm excitation and 810 nm longpass emission filters. Custom written MatLab code was used to analyze the tissue specific fluorescence where regions of interest were selected on the nerve, muscle, cut muscle and adipose tissue using the white light images. These regions of interest were then analyzed on the co-registered matched fluorescence images permitting assessment of the nerve-to-muscle, nerve-to-cut muscle, and nerve-to-adipose ratios in blinded manner.
In vivo nerve-specificity screening of the benzo[c]phenoxazine derivative library. Each compound was screened for its tissue-specificity using a direct administration strategy (Barth & Gibbs, Theranostics 7, 573-593 (2017)) where nerve contrast was examined in murine brachial plexus and sciatic nerves. The benzo[c]phenoxazine derivatives were solubilized for in vivo use in the previously described co-solvent formulation (Gibbs-Strauss et al., Molecular imaging 10, 91-101 (2011)). The previously optimized staining procedure was utilized (Gibbs et al., PloS one 8, e73493 (2013)), which is described briefly as follows. The brachial plexus and sciatic nerves were surgically exposed by removal of overlaying adipose and muscle tissues. The benzo[c]phenoxazine compound was formulated at 500 μM in the co-solvent formulation and 100 μL was incubated on the exposed brachial plexus or sciatic nerve for 5 minutes. The fluorophore containing solution was removed and the area was irrigated with saline nine times, followed by a five-minute incubation with blank formulation and then irrigation with saline nine more times to remove any unbound fluorophore. Images were acquired 30 minutes following completion of staining. Unstained nerve sites were used for all control images to quantify autofluorescence. Each benzo[c]phenoxazine derivative was screened in n=3 mice or 6 nerve sites/fluorophore. The quantified tissue fluorescence intensities following direct administration of the fluorophores were used to calculate nerve-to-muscle, nerve-to-cut muscle, and nerve-to-adipose ratios as metrics of nerve contrast. […] Uninjected animals were used for all control images to quantify autofluorescence. Similarly to quantification protocol for the direct administration, the quantified tissue fluorescence intensities following systemic administration of the fluorophores were used to calculate nerve-to-muscle and nerve-to-adipose ratios as metrics of nerve contrast. […]
Intraoperative fluorescence imaging systems. A custom-built small animal imaging system capable of real-time color and fluorescence imaging was used to acquire in vivo rodent images (Hackman et al., Molecular pharmaceutics (2015)). […]

For series [3] the following is noted: longest among reported nerve-specific fluorophores; cited from earlier work.

With `CCN(CC)c1ccc2c3c(ccc2c1)N=c1cc2c(cc1O3)=NCCC2` [LGW07-14, 3-(diethylamino)-10,11-dihydro-9H-benzo[h]pyrido[3,2-b]phenoxazin-12-ium], the “outcome of nerve-specificity screening (nerve-to-muscle, nerve-to-adipose ratios) following systemic administration” value in series [1] was “selected as lead benzo[c]phenoxazine nerve-specific fluorophores”. Moreover, the “outcome of nerve-specificity screening (nerve-to-muscle, nerve-to-cut muscle, nerve-to-adipose ratios) following direct administration” value in series [2] is “lead candidates”.

`CCN(CC)c1ccc2c(ccc3nc4ccc(=[N+](C)C)cc-4oc32)c1` [LGW07-92, N-(3-(diethylamino)-10H-benzo[c]phenoxazin-10-ylidene)-N-methylmethanaminium]: the “outcome of nerve-specificity screening (nerve-to-muscle, nerve-to-cut muscle, nerve-to-adipose ratios) following direct administration” value in series [2] was “lead candidates”.

`CC/N=c1\ccc2nc3ccc4cc(N(CC)CC)ccc4c3oc-2c1C` [LGW08-35, (E)-N-(3-(diethylamino)-11-methyl-10H-benzo[c]phenoxazin-10-ylidene)ethanaminium]: in series [1], the “outcome of nerve-specificity screening (nerve-to-muscle, nerve-to-adipose ratios) following systemic administration” value was “selected as lead benzo[c]phenoxazine nerve-specific fluorophores”. In addition, the “outcome of nerve-specificity screening (nerve-to-muscle, nerve-to-cut muscle, nerve-to-adipose ratios) following direct administration” value in series [2] is “lead candidates”.

For `CC/N=c1/cc2oc3c(ccc4cc(N(CC)CC)ccc43)nc-2c(C)c1` [LGW08-46, (E)-N-(3-(diethylamino)-8-methyl-10H-benzo[c]phenoxazin-10-ylidene)ethanaminium], in series [1], the “outcome of nerve-specificity screening (nerve-to-muscle, nerve-to-adipose ratios) following systemic administration” value was “selected as lead benzo[c]phenoxazine nerve-specific fluorophores”. Moreover, in series [2], the “outcome of nerve-specificity screening (nerve-to-muscle, nerve-to-cut muscle, nerve-to-adipose ratios) following direct administration” value is on record as “lead candidates”.

In the case of `CC/N=c1/cc2oc3c(ccc4cc(N(CC)CC)ccc43)nc-2cc1C` [LGW 05-25, (Z)—N-(3-(diethylamino)-9-methyl-10H-benzo[c]phenoxazin-10-ylidene)ethanaminium], the “outcome of nerve-specificity screening (nerve-to-muscle, nerve-to-adipose ratios) following systemic administration” value in series [1] was “selected as lead benzo[c]phenoxazine nerve-specific fluorophores”. Also, the “outcome of nerve-specificity screening (nerve-to-muscle, nerve-to-cut muscle, nerve-to-adipose ratios) following direct administration” value in series [2] is listed as “lead candidates”.

For the compound `CC/N=c1/cc2oc3cc(NCC)c(C)cc3nc-2cc1C` [Oxazine 4], the emission wavelength maximum in series [3] is recorded as 635 nm.
